Laboratory results taken from patent US20260364214A1, “MULTIVALENT FIBROBLAST ACTIVATION PROTEIN LIGANDS FOR TARGETED DELIVERY APPLICATIONS” (Philochem AG, priority 2022, published 2026).

How the values were obtained:
[1] = Determination of Log D7.4 (1-octanol/PBS); assay type: physicochemical; conditions: 1-octanol/PBS pH 7.4; 177Lu-labeled
Experimental: The lipophilicity of ^177Lu-ESV6, ^177Lu-Bi-ESV6, ^177Lu-Tri-ESV6 and ^177Lu-FAP-2286 was determined as follows. 100 μL aliquots of the radioligand (~1 MBq) in PBS buffer were added to PBS buffer (500 μL, pH 7.4) and 1-octanol (600 μL). The two-layer mixture were vigorously shaken for 10 minutes on a vortex mixer and then centrifuged at 700 rpm for 5 min to facilitate the separation. 100 μL aliquots of both layers were measured in a Packard Cobra Gamma Counter and the partition coefficient was determined by dividing cpm (octanol) by cpm (PBS) and indicated as Log D7.4. • Log D7.4 (^177Lu-ESV6): −4.13 • Log D7.4 (^177Lu-Bi-ESV6): −3.75 • Log D7.4 (^177Lu-Tri-ESV6): −3.10 • Log D7.4 (^177Lu-FAP-2286): −3.05

SK-RC-52.hFAP tumors = test: Quantitative biodistribution in SK-RC-52.hFAP tumor bearing mice; assay type: in vivo, mouse (female athymic Balb/c AnNRj-Foxn1); conditions: i.v. 250 nmol/kg, 50 MBq/kg
How it was run: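 Female athymic Balb/c nude mice carried subcutaneous SK-RC-52.hFAP tumors (5 million cells, ~300 mm^3). 177Lu-labeled conjugates were given i.v. at 250 nmol/kg, 50 MBq/kg. Tissues gamma-counted at several time points as %ID/g±SD, tumor values corrected for growth rate; tumor-to-organ ratios derived.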

SMILES: N#C[C@@H]1CC(F)(F)CN1C(=O)CNC(=O)c1ccnc2c(NC(=O)CCC(=O)NCCNC(=O)CCC(C(=O)O)N3CCN(CC(=O)[O-])CCN(CC(=O)[O-])CCN(CC(=O)[O-])CC3)cccc12.[177Lu+3] (stereo partly shown) [^177Lu-ESV6-DOTAGA, reference compound]
- Log D7.4 [1]: −4.13
- Tumor to organs ratio, Blood (SK-RC-52.hFAP tumors; 24 h): 628.54
- Injected dose per gram, Blood (SK-RC-52.hFAP tumors; 24 h post injection): 0.00 % ID/g
- Tumor to organs ratio, Blood (SK-RC-52.hFAP tumors; 48 h): 2173.00
- Injected dose per gram, Blood (SK-RC-52.hFAP tumors; 48 h post injection): 0.00 % ID/g
- Tumor to organs ratio, Heart (SK-RC-52.hFAP tumors; 24 h): 497.97
- Injected dose per gram, Heart (SK-RC-52.hFAP tumors; 24 h post injection): 0.01 % ID/g
- Tumor to organs ratio, Heart (SK-RC-52.hFAP tumors; 48 h): 314.15
- Injected dose per gram, Heart (SK-RC-52.hFAP tumors; 48 h post injection): 0.00 % ID/g
- Tumor to organs ratio, Intestine (SK-RC-52.hFAP tumors; 24 h): 240.54
- Injected dose per gram, Intestine (SK-RC-52.hFAP tumors; 24 h post injection): 0.01 % ID/g
- Tumor to organs ratio, Intestine (SK-RC-52.hFAP tumors; 48 h): 232.61
- Injected dose per gram, Intestine (SK-RC-52.hFAP tumors; 48 h post injection): 0.01 % ID/g
- Tumor to organs ratio, Kidney (SK-RC-52.hFAP tumors; 24 h): 5.41
- Injected dose per gram, Kidney (SK-RC-52.hFAP tumors; 24 h post injection): 0.47 % ID/g
- Tumor to organs ratio, Kidney (SK-RC-52.hFAP tumors; 48 h): 4.22
- Injected dose per gram, Kidney (SK-RC-52.hFAP tumors; 48 h post injection): 0.28 % ID/g
- Tumor to organs ratio, Liver (SK-RC-52.hFAP tumors; 24 h): 37.66
- Injected dose per gram, Liver (SK-RC-52.hFAP tumors; 24 h post injection): 0.07 % ID/g
- Tumor to organs ratio, Liver (SK-RC-52.hFAP tumors; 48 h): 20.54
- Injected dose per gram, Liver (SK-RC-52.hFAP tumors; 48 h post injection): 0.06 % ID/g
- Tumor to organs ratio, Lung (SK-RC-52.hFAP tumors; 24 h): 977.01
- Injected dose per gram, Lung (SK-RC-52.hFAP tumors; 24 h post injection): 0.01 % ID/g
- Tumor to organs ratio, Lung (SK-RC-52.hFAP tumors; 48 h): 805.04
- Injected dose per gram, Lung (SK-RC-52.hFAP tumors; 48 h post injection): 0.01 % ID/g
- Tumor to organs ratio, Muscle (SK-RC-52.hFAP tumors; 24 h): 159.12
- Injected dose per gram, Muscle (SK-RC-52.hFAP tumors; 24 h post injection): 0.03 % ID/g
- Tumor to organs ratio, Muscle (SK-RC-52.hFAP tumors; 48 h): 142.88
- Injected dose per gram, Muscle (SK-RC-52.hFAP tumors; 48 h post injection): 0.01 % ID/g
- Tumor to organs ratio, Spleen (SK-RC-52.hFAP tumors; 24 h): 158.68
- Injected dose per gram, Spleen (SK-RC-52.hFAP tumors; 24 h post injection): 0.03 % ID/g
- Tumor to organs ratio, Spleen (SK-RC-52.hFAP tumors; 48 h): 503.00
- Injected dose per gram, Spleen (SK-RC-52.hFAP tumors; 48 h post injection): 0.01 % ID/g
- Tumor to organs ratio, Tail (SK-RC-52.hFAP tumors; 24 h): 48.95
- Injected dose per gram, Tail (SK-RC-52.hFAP tumors; 24 h post injection): 0.05 % ID/g
- Tumor to organs ratio, Tail (SK-RC-52.hFAP tumors; 48 h): 45.61
- Injected dose per gram, Tail (SK-RC-52.hFAP tumors; 48 h post injection): 0.03 % ID/g
- Injected dose per gram, Tumor (SK-RC-52.hFAP tumors; 24 h post injection): 2.53 % ID/g
- Injected dose per gram, Tumor (SK-RC-52.hFAP tumors; 48 h post injection): 1.19 % ID/g

SMILES: N#CC1CC(F)(F)CN1C(=O)CNC(=O)c1ccnc2c(NC(=O)CCC(=O)NCCCCC(NC(=O)CCC(=O)Nc3cccc4c(C(=O)NCC(=O)N5CC(F)(F)CC5C#N)ccnc34)C(=O)NCCNC(=O)CCC(C(=O)O)N3CCN(CC(=O)[O-])CCN(CC(=O)[O-])CCN(CC(=O)[O-])CC3)cccc12.[177Lu+3] (stereo not shown) [^177Lu-Bi-ESV6-DOTAGA, reference compound]
- Log D7.4 [1]: −3.75
- Tumor to organs ratio, Blood (SK-RC-52.hFAP tumors; 24 h): 270.81
- Injected dose per gram, Blood (SK-RC-52.hFAP tumors; 24 h post injection): 0.05 % ID/g
- Tumor to organs ratio, Blood (SK-RC-52.hFAP tumors; 48 h): 4240.99
- Injected dose per gram, Blood (SK-RC-52.hFAP tumors; 48 h post injection): 0.00 % ID/g
- Tumor to organs ratio, Blood (SK-RC-52.hFAP tumors; 72 h): 2515.44
- Injected dose per gram, Blood (SK-RC-52.hFAP tumors; 72 h post injection): 0.00 % ID/g
- Tumor to organs ratio, Heart (SK-RC-52.hFAP tumors; 24 h): 342.92
- Injected dose per gram, Heart (SK-RC-52.hFAP tumors; 24 h post injection): 0.05 % ID/g
- Tumor to organs ratio, Heart (SK-RC-52.hFAP tumors; 48 h): 1206.24
- Injected dose per gram, Heart (SK-RC-52.hFAP tumors; 48 h post injection): 0.01 % ID/g
- Tumor to organs ratio, Heart (SK-RC-52.hFAP tumors; 72 h): 203.58
- Injected dose per gram, Heart (SK-RC-52.hFAP tumors; 72 h post injection): 0.04 % ID/g
- Tumor to organs ratio, Intestine (SK-RC-52.hFAP tumors; 24 h): 298.43
- Injected dose per gram, Intestine (SK-RC-52.hFAP tumors; 24 h post injection): 0.05 % ID/g
- Tumor to organs ratio, Intestine (SK-RC-52.hFAP tumors; 48 h): 458.76
- Injected dose per gram, Intestine (SK-RC-52.hFAP tumors; 48 h post injection): 0.03 % ID/g
- Tumor to organs ratio, Intestine (SK-RC-52.hFAP tumors; 72 h): 544.57
- Injected dose per gram, Intestine (SK-RC-52.hFAP tumors; 72 h post injection): 0.06 % ID/g
- Tumor to organs ratio, Kidney (SK-RC-52.hFAP tumors; 24 h): 14.96
- Injected dose per gram, Kidney (SK-RC-52.hFAP tumors; 24 h post injection): 0.96 % ID/g
- Tumor to organs ratio, Kidney (SK-RC-52.hFAP tumors; 48 h): 17.41
- Injected dose per gram, Kidney (SK-RC-52.hFAP tumors; 48 h post injection): 0.47 % ID/g
- Tumor to organs ratio, Kidney (SK-RC-52.hFAP tumors; 72 h): 12.21
- Injected dose per gram, Kidney (SK-RC-52.hFAP tumors; 72 h post injection): 0.66 % ID/g
- Tumor to organs ratio, Liver (SK-RC-52.hFAP tumors; 24 h): 48.81
- Injected dose per gram, Liver (SK-RC-52.hFAP tumors; 24 h post injection): 0.29 % ID/g
- Tumor to organs ratio, Liver (SK-RC-52.hFAP tumors; 48 h): 51.30
- Injected dose per gram, Liver (SK-RC-52.hFAP tumors; 48 h post injection): 0.16 % ID/g
- Tumor to organs ratio, Liver (SK-RC-52.hFAP tumors; 72 h): 28.14
- Injected dose per gram, Liver (SK-RC-52.hFAP tumors; 72 h post injection): 0.29 % ID/g
- Tumor to organs ratio, Lung (SK-RC-52.hFAP tumors; 24 h): 184.57
- Injected dose per gram, Lung (SK-RC-52.hFAP tumors; 24 h post injection): 0.08 % ID/g
- Tumor to organs ratio, Lung (SK-RC-52.hFAP tumors; 48 h): 300.13
- Injected dose per gram, Lung (SK-RC-52.hFAP tumors; 48 h post injection): 0.03 % ID/g
- Tumor to organs ratio, Lung (SK-RC-52.hFAP tumors; 72 h): 517.13
- Injected dose per gram, Lung (SK-RC-52.hFAP tumors; 72 h post injection): 0.06 % ID/g
- Tumor to organs ratio, Muscle (SK-RC-52.hFAP tumors; 24 h): 135.38
- Injected dose per gram, Muscle (SK-RC-52.hFAP tumors; 24 h post injection): 0.12 % ID/g
- Tumor to organs ratio, Muscle (SK-RC-52.hFAP tumors; 48 h): 270.58
- Injected dose per gram, Muscle (SK-RC-52.hFAP tumors; 48 h post injection): 0.05 % ID/g
- Tumor to organs ratio, Muscle (SK-RC-52.hFAP tumors; 72 h): 140.83
- Injected dose per gram, Muscle (SK-RC-52.hFAP tumors; 72 h post injection): 0.08 % ID/g
- Tumor to organs ratio, Spleen (SK-RC-52.hFAP tumors; 24 h): 125.34
- Injected dose per gram, Spleen (SK-RC-52.hFAP tumors; 24 h post injection): 0.11 % ID/g
- Tumor to organs ratio, Spleen (SK-RC-52.hFAP tumors; 48 h): 133.66
- Injected dose per gram, Spleen (SK-RC-52.hFAP tumors; 48 h post injection): 0.07 % ID/g
- Tumor to organs ratio, Spleen (SK-RC-52.hFAP tumors; 72 h): 61.08
- Injected dose per gram, Spleen (SK-RC-52.hFAP tumors; 72 h post injection): 0.14 % ID/g
- Tumor to organs ratio, Tail (SK-RC-52.hFAP tumors; 24 h): 69.69
- Injected dose per gram, Tail (SK-RC-52.hFAP tumors; 24 h post injection): 0.22 % ID/g
- Tumor to organs ratio, Tail (SK-RC-52.hFAP tumors; 48 h): 187.42
- Injected dose per gram, Tail (SK-RC-52.hFAP tumors; 48 h post injection): 0.07 % ID/g
- Tumor to organs ratio, Tail (SK-RC-52.hFAP tumors; 72 h): 64.13
- Injected dose per gram, Tail (SK-RC-52.hFAP tumors; 72 h post injection): 0.12 % ID/g
- Injected dose per gram, Tumor (SK-RC-52.hFAP tumors; 24 h post injection): 14.29 % ID/g
- Injected dose per gram, Tumor (SK-RC-52.hFAP tumors; 48 h post injection): 8.10 % ID/g
- Injected dose per gram, Tumor (SK-RC-52.hFAP tumors; 72 h post injection): 8.00 % ID/g
